From patent US20240002441A1, “PEPTIDES AND USES THEREOF IN MODULATION OF AMYLOID-BETA PROTEIN DEGRADING PROTEASES” (priority 2020, published 2024)

Test system: 5×FAD transgenic mice
Assay: 5×FAD transgenic mouse model of Alzheimer's Disease (Example 15)
Assay type: in vivo
Experimental: All animal experiments were conducted in strict accordance with the Australian Code of Practice for the Care and Use of Animals for Scientific Purposes. Local approval was obtained from The University of Queensland's Animal Ethics Committee. All wild-type (WT) and transgenic mice (5×FAD tg) used were from the same litters to act as appropriate littermate controls. Thirty-four 2.5-3-month-old female and twenty-five 2.5-3-month-old male mice were used in this study. Animals were housed in groups of 3-5 animals per cage and maintained on a 12 hr light-dark cycle. Food and water were provided ad libitum.
All testing was conducted between 8 AM-6 PM, at approximately the same time each day. Prior to commencing any behavioural testing, mice were habituated to handling and handler smell to minimize handling-related stress. Each mouse was handled daily by the experimenter conducting the behavioural tasks for 30-s to 1-min each day. Handling involved picking up the mouse (by the base of the tail) from the home cage and placing in the palm of a gloved hand. This process was repeated daily, at approximately the same time each day, for a total of 8 days prior to testing. The bedding of the animals' home cage was not changed 2-days prior habituation to handling and for the duration of the behavioural tests. […]
The Active Place Avoidance (APA) task assessing longer-term spatial learning and memory was conducted on all mice as previously described (Willis E F, Bartlett P F, Vukovic J. Protocol for Short- and Longer-term Spatial Learning and Memory in Mice. Front Behav Neurosci. 2017; 11:197. https://doi:10.3389/fnbeh.2017.00197). The APA arena (Bio-Signal Group, NY, USA) consisted of a 77 cm diameter metal grid floor fenced by a 32 cm high Perspex clear circular boundary. The elevated arena sits directly below a digital video camera (Point Gray, USA) and in the middle of the room with visual cues placed on all 4 of the room walls. The visual cues consisted of black and white symbols printed on A3-sized paper. Visual cues were randomly chosen and kept constant for the 5-days of testing, and a different set of visual cues were used for post-2A treatment testing. Room lighting was set at 62-63% white light and light intensity recordings were taken by placing the luxmeter in the centre of the arena before the start of each session and kept between 60-70 lux.
The arena was set to rotate clockwise (1 rpm). The shock zone where a brief electric shock (500 ms, 0.5 mA, track-dependent) is delivered through the grid floor, is set at a 270° (pre-2A treatment) or 90° (post-2A treatment) angle and width of 60°. […] Mice were to actively avoid this shock zone while the arena rotates clockwise.
The position of the mouse in the arena was tracked using an overhead camera linked to Tracker software (Bio-Signal Group). When the centre-point of the mouse entered the shock zone, as tracked by the overhead camera linked to the tracking software, it received an electric shock. During the trials, the researcher sat quietly behind a curtain, out of view of the arena. After the completion of a trial, each mouse was returned to the home cage and the metal grid, clear Perspex boundary and underlying floor were cleaned with 70% ethanol. All scat and urine were removed following the completion of the trial.
Peptide of SEQ ID NO. 2 was dissolved in dimethyl sulfoxide (DMSO), and subsequently diluted in Dulbecco's phosphate-buffered saline (DPBS; 10% DMSO final). Pre-treatment open field/activity monitor data was used as the pseudorandomisation parameter for assigning animals to treatment groups. At 12-14 weeks, male and female 5×FAD and WT littermates were intranasally administered either 10% DMSO in DPBS as vehicle treatment or SEQ ID NO. 2 in DPBS (1 mg/kg). Treatment commenced immediately after the completion of pre-treatment behavioural testing and was administered every other day for 1 month. Body weight was measured every second day prior to intranasal dosing. […]

Substance: H-SLFELGKMIL-NH2 [SEQ ID NO:2, H2N-SLFELGKMIL-NH2]
- active place avoidance behaviour, 5-day post-treatment performance (Tg mice, peptide versus vehicle): improved avoidance behavior
- IL-6 protein level in the cortex compared to Tg mice treated with vehicle (Tg mice, western blotting): reduction
- TNF-α protein level in the cortex compared to Tg mice treated with vehicle (Tg mice, western blotting): reduction
- number of shocks in the APA task at day 5 of testing, post-treatment versus pre-treatment (WT or Tg mice treated with peptide): significantly more
- frequency of entry to the novel arm in y-maze test, as % of entries to all other arms, pre-treatment compared with post-treatment (between groups): did not show significant difference
- number of shocks received post-treatment (between groups): not significantly different
- time in the centre in the open field/activity test (each group of mice, pre- versus post-treatment): not significantly different
